Source: patent US20080300263A1, “Pyrazolo [1,5-a] pyrimidine compounds and pharmaceutical compositions containing them” (EiRx Therapeutics plc, priority 2005, published 2008)
pEC50: −log10 of the molar value. Where two headings read alike, the source gives them in different places.

Legend:
C9M-TF1 cells [1] = assay: Primary high-throughput screen, Alamar Blue, suspension cells; format: cell-based; settings: Homo sapiens, 72 h, compound at 10 μM, read-out: percentage kill, C9M
Protocol: (§1) Daughter Plates containing 10 μl of a […] solution of test compound selected from among the candidate compounds stored at […] are thawed at room temperature. A 10 μL volume of 0.1% DMSO in PBS is added to all wells of Column 12 and the wells in Row A-F of Column 1. A 10 μl volume of a pre-determined concentration of the P13-Kinase inhibitor LY294002 is added to wells in Row G and H of Column 1. A 90 μl volume of the appropriate cell culture medium is then added to each well and mixed by repeated aspiration/dispensing. The compounds are at a final test concentration of 10 μM.
(§2) Once the Daughter Plates have been prepared the media is removed from all wells of the cell culture plate using an 8-Channel Vacuum Aspirator. The contents of the Daughter Plates are then transferred to the appropriate wells of their relevant Test Plates and the Test Plates are incubated for 72 h at 37° C. and 5% CO2. At the end of this period Test Plates are assayed by Alamar Blue. A 10 μl volume of Alamar Blue is added to all wells of the Test Plate. The Test Plates are incubated for […] at 37° C. and 5% CO2 and finally read using the BioTek SYNERGY plate reader (Excitation 530125 nm-Emission 590135 nm). Percentage inhibition is determined using Microsoft Excel spreadsheet calculations.
(§3) Suspension cells are split 24 hours prior to drug treatment in order to bring the cultures into the log phase of growth. On the day of the assay the cells are plated directly into the Daughter Plates at the appropriate pre-determined seeding density (Table 1) in 90 μl volumes, the concentration of the test compounds thus being reduced to 10 μM. Cells are plated in all wells apart from those in Column 12 which contain 901 normal culture medium alone. The plates are incubated for 72 h at 37° C. and 5% CO2 after which time they are assayed by Alamar Blue as per the preceding example.
(§4) The figures appearing in the columns are the percentage kill achieved by that compound at 10 μM.

[2] = system: FRAT2 overexpresing TF1 (FRAT2-C9M-TF1 cells); assay: as above; format: cell-based; settings: Homo sapiens, compound at 10 μM, 72 h
Protocol: as §1, §2, §3, §4

[3] = system: A549 Non Small Cell Lung Carcinoma; assay: Primary high-throughput screen, Alamar Blue, adherent cells; format: cell-based; settings: Homo sapiens, compound at 10 μM, 72 h, read-out: percentage kill, A549
Protocol: (§5) Adherent cells are plated at a pre-determined seeding density (Table 1) in flat-bottom 96 well plates 24 hours prior to drug treatment. The cell lines are plated in 100 μl volumes in each well. Cells are plated in all wells apart from those in Column 12 which contain 100 μL normal culture medium alone. These plates will be known as the Test Plates. The Test Plates are labelled with a Daughter Plate ID.
as §1, §2, §4

[4] = system: CACO2 Colon adenocarcinoma; assay: as above; format: cell-based; settings: Homo sapiens, Caco-2; compound at 10 μM, 72 h; read-out: percentage kill, CAC02
Protocol: as §5, §1, §2, §4

[5] = system: HT29 Colorectal adenocarcinoma; assay: as above; format: cell-based; settings: Homo sapiens, HT-29; compound at 10 μM, 72 h; read-out: percentage kill, HT29
Protocol: as §5, §1, §2, §4

[6] = system: LS123 Colon adenocarcinoma (Dukes' type B); assay: as above; format: cell-based; settings: Homo sapiens, LS-123; compound at 10 μM, 72 h; read-out: percentage kill, LS123
Protocol: as §5, §1, §2, §4

[7] = system: MCF7 Mammary gland adenocarcinoma; assay: as above; format: cell-based; settings: Homo sapiens, compound at 10 μM, 72 h, read-out: percentage kill, MCF7
Protocol: as §5, §1, §2, §4

[8] = system: NCI ADR RES Breast adenocarcinoma (pleural effusion); assay: as above; format: cell-based; settings: Homo sapiens, compound at 10 μM, 72 h, read-out: percentage kill, NCI ADR RES
Protocol: as §5, §1, §2, §4

[9] = system: PC3 Prostate carcinoma (bone metastasis); assay: as above; format: cell-based; settings: compound at 10 μM, 72 h; read-out: percentage kill, PC3
Protocol: as §5, §1, §2, §4

[10] = system: SW480 Colon adenocarcinoma (Dukes' type B); assay: as above; format: cell-based; settings: Homo sapiens, compound at 10 μM, 72 h, read-out: percentage kill, SW480
Protocol: as §5, §1, §2, §4

[11] = system: U1810 Non Small Cell Lung Carcinoma; assay: as above; format: cell-based; settings: U-1810; compound at 10 μM, 72 h; read-out: percentage kill, U1810
Protocol: as §5, §1, §2, §4

C9M-TF1 cells [12] = assay: EC50 titration, Alamar Blue, suspension cells; format: cell-based; settings: Homo sapiens, 72 h
Protocol: (§6) On the day of the assay compounds are used to prepare dilution series on Titration Plates which are plated at ten times their final screening concentration in 10 μl aliquots.
(§7) Suspension cells are split 24 hours prior to drug treatment in order to bring the cultures into the log phase of growth. On the day of the assay the cells are plated directly into the Titration Plates at the appropriate pre-determined seeding density (Table 1) in 90 μl volumes thus reducing the concentration of the compounds to their final test concentration. The plates are incubated for 72 hours at 37° C. and 5% CO2 after which time they are assayed by Alamar Blue.
(§8) The EC50 values are calculated using the values obtained from the Alamar Blue readout which are converted into a “Percentage of the Untreated Control” and using Graph Pad Prism these values are plotted against the logarithm of the test concentration. Using a non-linear regression analysis a sigmoidal dose-response curve is generated from which the EC50 is determined.

FRAT2-C9M-TF1 cells = assay: EC50 titration, Alamar Blue, suspension cells; format: cell-based, Human; settings: Homo sapiens, 72 h, Alamar Blue
Protocol: as §6, §7, §8

[13] = system: breast cancer cell line MCF7; assay: EC50 titration, Alamar Blue, adherent cells; format: cell-based; settings: Homo sapiens, 72 h
Protocol: as §6
(§9) For adherent cell lines plated 24 hours previously, a 90 μl volume of the appropriate cell culture medium is then added to each well of the Titration Plates and mixed by repeated aspiration/dispensing, thus taking the compounds to their final test concentration. Once the Titration Plates have been prepared the media is removed from all wells of the cell culture plate and the contents of the Titration Plates are then transferred to the appropriate wells of their relevant Test Plates and incubated for 72 h at 37° C. and 5% CO2 after which time they are assayed by Alamar Blue. Using a combination of Microsoft Excel and Graph Pad Prism, EC50s are determined.
as §8

[14] = system: colon cancer cell line HT29; assay: EC50 titration, Alamar Blue, adherent cells; format: cell-based; settings: Homo sapiens, HT-29, 72 h
Protocol: as §6, §9, §8

[15] = system: non-transformed breast cell line MCF10A; assay: EC50 titration, Alamar Blue, adherent cells; format: cell-based; settings: Homo sapiens, MCF-10A, 72 h
Protocol: as §6, §9, §8

[16] = minus GMCSF, read-out: percentage kill, FRAT2−
[17] = plus GMCSF, read-out: percentage kill, FRAT2+

| Compound | inhibition at 10 µM (C9M-TF1 cells [1]; first C9M column) [%] | inhibition at 10 µM (C9M-TF1 cells [1]; second C9M column) [%] | inhibition at 10 µM [2, 16] [%] | inhibition at 10 µM [2, 17] [%] | inhibition at 10 µM [3] [%] | inhibition at 10 µM [4] [%] | inhibition at 10 µM [5] [%] | inhibition at 10 µM [6] [%] | inhibition at 10 µM [7] [%] | inhibition at 10 µM [8] [%] | inhibition at 10 µM [9] [%] | inhibition at 10 µM [10] [%] | inhibition at 10 µM [11] [%] | pEC50 (C9M-TF1 cells [12]) | pEC50 (FRAT2-C9M-TF1 cells; absence of growth factor) | pEC50 (FRAT2-C9M-TF1 cells; presence of growth factor) | pEC50 [13] | pEC50 [14] | pEC50 [15] |
| --- | --- | --- | --- | --- | --- | --- | --- | --- | --- | --- | --- | --- | --- | --- | --- | --- | --- | --- | --- |
| COc1cccc(-c2cnn3c(NCc4ccccn4)ccnc23)c1 [Compound 1] | -1 | 2 | 54 | 28 | 34 | 61 | 58 | 91 | 68 | 58 | -4 | 33 | 15 | 4.59 | 4.93 | 4.89 | 5.42 | 5.40 | 4.73 |
| COc1ccc(-c2cnn3c(NCc4ccccn4)ccnc23)c(OC)c1 [Compound 4] | 1 | 1 | 71 | 36 | 12 | 35 | 71 | 92 | 64 | 67 | -4 | 53 | 16 | 4.67 | 5.56 | 5.25 | 5.75 | 5.80 | 4.84 |
| c1ccc(-c2cnn3c(NCc4ccccn4)ccnc23)cc1 [Compound 5] | 1 | -11 | 61 | 42 | 10 | 78 | 75 | 87 | 87 | 63 | -92 | 62 | 24 | 4.78 | 5.44 | 5.24 | 5.82 | 5.80 | 4.89 |
| Fc1ccccc1-c1cnn2c(NCc3ccccn3)ccnc12 [Compound 6] | -1 | -11 | 59 | 33 | 6 | 37 | 20 | 72 | 64 | 51 | -94 | 3 | 11 | 5.00 | 5.24 | 5.29 | 5.88 | 5.85 | 4.63 |
| CN(C)c1cccc(-c2cnn3c(NCc4ccccn4)ccnc23)c1 [Compound 7] | 9 | 23 | 53 | 27 | 5 | 32 | 40 | 82 | 68 | 63 | -16 | 44 | 18 | 4.69 | 5.18 | 5.30 | 5.63 | 5.39 | 4.94 |
| c1ccc(CNc2ccnc3c(-c4cccc5cccnc45)cnn23)nc1 [Compound 8] | 7 | -4 | 68 | 39 | -3 | 71 | 78 | 92 | 83 | 85 | 56 | 71 | 68 | 4.75 | 5.25 | 5.24 | 5.75 | 5.82 | 5.21 |
| Fc1ccc(-c2cnn3c(NCc4ccccn4)ccnc23)cc1Cl [Compound 11] | 1 | -6 | 71 | 35 | 5 | 61 | 25 | 22 | 22 | 18 | -85 | -6 | 13 |  |  |  |  |  |  |
| ClCc1ccccc1-c1cnn2c(NCc3cccs3)ccnc12 [Compound 12] | 0 | 0 | 52 | 19 | 4 | 17 | -5 | 31 | 36 | -12 | -45 | -22 | 18 |  |  |  |  |  |  |
| c1ccc(CNc2ccnc3c(-c4ccc(N5CCOCC5)cc4)cnn23)nc1 [Compound 13] | -1 | -1 | 61 | 38 | 18 | 27 | -13 | 55 | 56 | 28 | -37 | -4 | 13 |  |  |  |  |  |  |
| Clc1cccc(Nc2ccn3ncc(-c4ccncc4)c3n2)c1 [Compound 14] | 45 | 27 | 50 | 38 | 26 | 46 | 51 | 13 | 26 | 2 | -4 | 10 | 2 |  |  |  |  |  |  |
